Laboratory results as given in article PMC7914897, “Cytotoxic Potential of a-Azepano- and 3-Amino-3,4-SeCo-Triterpenoids” (International Journal of Molecular Sciences, 2021).
Like-named read-outs stand apart in the source and are kept apart here.

Assays:
LOX IMVI (Melanoma) = experiment: NCI-60 screen (SRB, 48 h); assay type: cell-based; conditions: Homo sapiens
MDA-MB-435 (Melanoma) = experiment: NCI-60 screen (SRB, 48 h); assay type: cell-based; conditions: Homo sapiens
OVCAR-4 (Ovarian cancer) = experiment: NCI-60 screen (SRB, 48 h); assay type: cell-based; conditions: Homo sapiens
Leukemia subpanel = experiment: cells; conditions: Homo sapiens
CNS cancer subpanel = experiment: NCI-60 screen, subpanel; conditions: Homo sapiens
K-562 (Leukemia) = experiment: NCI-60 screen (SRB, 48 h); conditions: Homo sapiens
RPMI-8226 (Leukemia) = experiment: NCI-60 screen (SRB, 48 h); conditions: Homo sapiens
HOP-92 (NSC lung cancer) = experiment: NCI-60 screen (SRB, 48 h); conditions: Homo sapiens
[1] = system: NCI-H226 (NSC lung cancer); experiment: NCI-60 screen (SRB, 48 h); conditions: Homo sapiens
[2] = system: NCI-H23 (NSC lung cancer); experiment: NCI-60 screen (SRB, 48 h); conditions: Homo sapiens
HCC-2998 (Colon cancer) = experiment: NCI-60 screen (SRB, 48 h); conditions: Homo sapiens
HCT-15 (Colon cancer) = experiment: NCI-60 screen (SRB, 48 h); conditions: Homo sapiens
SF-539 (CNS cancer) = experiment: NCI-60 screen (SRB, 48 h); conditions: Homo sapiens
U251 (CNS cancer) = experiment: NCI-60 screen (SRB, 48 h); conditions: Homo sapiens
MALME-3M (Melanoma) = experiment: NCI-60 screen (SRB, 48 h); conditions: Homo sapiens
M14 (Melanoma) = experiment: NCI-60 screen (SRB, 48 h); conditions: Homo sapiens
SK-MEL-2 (Melanoma) = experiment: NCI-60 screen (SRB, 48 h); conditions: Homo sapiens
SK-MEL-28 (Melanoma) = experiment: NCI-60 screen (SRB, 48 h); conditions: Homo sapiens
UACC-257 (Melanoma) = experiment: NCI-60 screen (SRB, 48 h); conditions: Homo sapiens
OVCAR-5 (Ovarian cancer) = experiment: NCI-60 screen (SRB, 48 h); conditions: Homo sapiens
OVCAR-8 (Ovarian cancer) = experiment: NCI-60 screen (SRB, 48 h); conditions: Homo sapiens
[3] = system: NCI/ADR-RES (Ovarian cancer); experiment: NCI-60 screen (SRB, 48 h); conditions: Homo sapiens
SK-OV-3 (Ovarian cancer) = experiment: NCI-60 screen (SRB, 48 h); conditions: Homo sapiens
SN12C (Renal cancer) = experiment: NCI-60 screen (SRB, 48 h); conditions: Homo sapiens
[4] = system: MDA-MB-31/ATCC (Breast cancer); experiment: NCI-60 screen (SRB, 48 h); conditions: Homo sapiens
HS 578T (Breast cancer) = experiment: NCI-60 screen (SRB, 48 h); conditions: Homo sapiens
[5] = system: panel of approximately 60 cancer cell lines; experiment: NCI-60 screen (SRB, 48 h), full panel

In the case of `CC1(C)CC[C@]23CC[C@]4(C)[C@H](CC[C@@H]5[C@@]6(C)CCCNC(C)(C)[C@@H]6CC[C@]54C)[C@H]2[C@H]1OC3` [Compound 7, Azepanoallobetulin], the IC (TGI) (LOX IMVI (Melanoma); 48 h) is reported as 3.08 µM, the activity at 10 µM (LOX IMVI (Melanoma); 48 h, 1 dose 10 µM, read-out: Growth % of the Most Sensitive Cell Lines) is reported as -94.9% and the GI50 (LOX IMVI (Melanoma); read-out: GI50) is reported as 1.6 µM. The GI50 (MDA-MB-435 (Melanoma); MDA-MB-435) was 1.65 µM, the IC (TGI) (MDA-MB-435 (Melanoma); MDA-MB-435, 48 h, read-out: TGI) was 3.02 µM and the CC50 (MDA-MB-435 (Melanoma); MDA-MB-435, read-out: LC50 (the source's name)) was 5.55 µM. The GI50 (OVCAR-4 (Ovarian cancer); OVCAR-4) was 1.65 µM, the IC (TGI) (OVCAR-4 (Ovarian cancer); OVCAR-4, 48 h) was 3.12 µM and the CC50 (OVCAR-4 (Ovarian cancer); OVCAR-4, read-out: LC50 (the source's name)) was 5.88 µM. The IC (TGI) (Leukemia subpanel; 48 h, read-out: TGI MG_MID) was 5.49 µM, the GI50 (Leukemia subpanel; read-out: GI50 MG_MID) was 1.96 µM and the CC50 (Leukemia subpanel; read-out: LC50 MG_MID) was 94.3 µM. The IC (TGI) (CNS cancer subpanel; 48 h, read-out: TGI MG_MID) was 3.51 µM, the GI50 (CNS cancer subpanel; read-out: GI50 MG_MID) was 1.58 µM and the CC50 (CNS cancer subpanel; read-out: LC50 MG_MID) was 10.2 µM. It also gave a GI50 (K-562 (Leukemia); K562) of 1.96 µM, an IC (TGI) (K-562 (Leukemia); K562, 48 h, read-out: TGI) of 7 µM and a CC50 (K-562 (Leukemia); K562, read-out: LC50) of over 100 µM. For the same compound, the GI50 (RPMI-8226 (Leukemia); RPMI-8226) was 1.94 µM, the IC (TGI) (RPMI-8226 (Leukemia); RPMI-8226, 48 h, read-out: TGI) was 4.58 µM and the CC50 (RPMI-8226 (Leukemia); RPMI-8226, read-out: LC50) was 96.8 µM. The GI50 (HOP-92 (NSC lung cancer); HOP-92) was 1.41 µM, the IC (TGI) (HOP-92 (NSC lung cancer); HOP-92, 48 h, read-out: TGI) was 2.96 µM and the GI50 ([1]; NCI-H226) was 1.7 µM. The IC (TGI) ([1]; NCI-H226, 48 h, read-out: TGI) was 3.47 µM, the CC50 ([1]; NCI-H226, read-out: LC50) was 7.09 µM and the GI50 ([2]; NCI-H23) was 1.76 µM. For the same compound, the IC (TGI) ([2]; NCI-H23, 48 h, read-out: TGI) was 3.5 µM, the CC50 ([2]; NCI-H23, read-out: LC50) was 6.95 µM and the GI50 (HCC-2998 (Colon cancer); HCC 2998) was 1.54 µM. The IC (TGI) (HCC-2998 (Colon cancer); HCC 2998, 48 h, read-out: TGI) was 2.97 µM, the CC50 (HCC-2998 (Colon cancer); HCC 2998, read-out: LC50) was 5.72 µM and the GI50 (HCT-15 (Colon cancer); HCT-15) was 1.31 µM. For the same compound, the IC (TGI) (HCT-15 (Colon cancer); HCT-15, 48 h, read-out: TGI) was 2.68 µM, the CC50 (HCT-15 (Colon cancer); HCT-15, read-out: LC50) was 5.47 µM and the GI50 (SF-539 (CNS cancer); SF-539) was 1.64 µM. The IC (TGI) (SF-539 (CNS cancer); SF-539, 48 h, read-out: TGI) was 3.07 µM, the CC50 (SF-539 (CNS cancer); SF-539, read-out: LC50) was 5.78 µM and the GI50 (U251 (CNS cancer); U-251) was 1.74 µM. For the same compound, the IC (TGI) (U251 (CNS cancer); U-251, 48 h, read-out: TGI) was 3.23 µM, the CC50 (U251 (CNS cancer); U-251, read-out: LC50) was 5.98 µM and the GI50 (MALME-3M (Melanoma)) was 1.79 µM. For the same compound, the IC (TGI) (MALME-3M (Melanoma); 48 h, read-out: TGI) was 3.47 µM, the CC50 (MALME-3M (Melanoma); read-out: LC50) was 6.72 µM and the GI50 (M14 (Melanoma); M14) was 1.77 µM. It also gave an IC (TGI) (M14 (Melanoma); M14, 48 h, read-out: TGI) of 3.31 µM, a CC50 (M14 (Melanoma); M14, read-out: LC50) of 6.19 µM and a GI50 (SK-MEL-2 (Melanoma); SK-MEL-2) of 1.95 µM. For the same compound, the IC (TGI) (SK-MEL-2 (Melanoma); SK-MEL-2, 48 h, read-out: TGI) was 4.09 µM, the CC50 (SK-MEL-2 (Melanoma); SK-MEL-2, read-out: LC50) was 8.57 µM and the GI50 (SK-MEL-28 (Melanoma); SK-MEL-28) was 1.66 µM. The IC (TGI) (SK-MEL-28 (Melanoma); SK-MEL-28, 48 h, read-out: TGI) was 3.18 µM, the CC50 (SK-MEL-28 (Melanoma); SK-MEL-28, read-out: LC50) was 6.07 µM and the GI50 (UACC-257 (Melanoma); UACC-257) was 1.92 µM. The IC (TGI) (UACC-257 (Melanoma); UACC-257, 48 h, read-out: TGI) was 3.89 µM, the CC50 (UACC-257 (Melanoma); UACC-257, read-out: LC50) was 7.77 µM and the GI50 (OVCAR-5 (Ovarian cancer); OVCAR-5) was 1.6 µM. The IC (TGI) (OVCAR-5 (Ovarian cancer); OVCAR-5, 48 h, read-out: TGI) was 3.04 µM, the CC50 (OVCAR-5 (Ovarian cancer); OVCAR-5, read-out: LC50) was 5.8 µM and the GI50 (OVCAR-8 (Ovarian cancer); OVCAR-8) was 1.87 µM. For the same compound, the IC (TGI) (OVCAR-8 (Ovarian cancer); OVCAR-8, 48 h, read-out: TGI) was 3.66 µM, the GI50 [3] was 1.78 µM and the IC (TGI) ([3]; 48 h, read-out: TGI) was 3.59 µM. It also gave a GI50 (SK-OV-3 (Ovarian cancer); SK-OV-3) of 2.73 µM, an IC (TGI) (SK-OV-3 (Ovarian cancer); SK-OV-3, 48 h, read-out: TGI) of 7.93 µM and a CC50 (SK-OV-3 (Ovarian cancer); SK-OV-3, read-out: LC50) of 36.9 µM. The GI50 (SN12C (Renal cancer)) was 1.68 µM, the IC (TGI) (SN12C (Renal cancer); 48 h, read-out: TGI) was 3.2 µM and the CC50 (SN12C (Renal cancer); read-out: LC50) was 6.1 µM. It also gave a GI50 [4] of 1.66 µM, an IC (TGI) ([4]; 48 h, read-out: TGI) of 3.2 µM and a CC50 ([4]; read-out: LC50) of 6.17 µM. The GI50 (HS 578T (Breast cancer)) was 1.96 µM, the IC (TGI) (HS 578T (Breast cancer); 48 h, read-out: TGI) was 4.69 µM and the CC50 (HS 578T (Breast cancer); read-out: LC50) was 2.44 µM. For the same compound, the “Positive Cytostatic Effect (cell lines with percent growth 0 to 50 / total)” value ([5]; 1 dose 10 µM) was 16/59, the “Positive Cytotoxic Effect (cell lines with percent growth < 0 / total)” value ([5]; 1 dose 10 µM) was 41/58 and the “number of cancer cell lines the compound was active against” value ([5]; 1 dose 10 µM) was 52 cell lines. The activity at 10 µM ([5]; Homo sapiens, 48 h, read-out: Mean Growth, %) was -27.3%, the activity at 10 µM ([5]; Homo sapiens, 48 h, read-out: Range of Growth, %) was -99.4 to 76.4% and the IC (TGI) ([5]; Homo sapiens, 48 h, read-out: TGI MG_MID60, average over all cell lines) was 3.64 µM. It also gave a GI50 ([5]; Homo sapiens, read-out: GI50 MG_MID60) of 1.68 µM, a GI50 ([5]; Homo sapiens, read-out: GI50 against all human tumor cell lines) of under 3 µM and a GI50 ([5]; Homo sapiens, read-out: GI50 against the most sensitive cell lines) of 0.2 to 0.94 µM. The CC50 ([5]; Homo sapiens, read-out: LC50 MG_MID60, average over all cell lines) was 17.2 µM.
